# Legend:
# [1] = tested on: ANG II type 1 receptor; assay: Inhibition of ANG II-mediated intracellular calcium spike in lung smooth muscle cells; format: cell-based
# [2] = cynomolgus monkey, in vivo
smiles,measurement,setting,value
"CCCc1nc2c(C)cc(-c3nc4ccccc4n3C)cc2n1Cc1ccc(-c2ccccc2C(=O)O)cc1 [FD-TEL, telmisartan]",ANG II-mediated transient [Ca2+]i spike,[1],equally and entirely abrogated
same,creatine kinase,[2],significant increase
